Laboratory results as given in ChEMBL document CHEMBL6121063, “Identification of a Potent and Selective CDK9 Degrader as a Targeted Therapeutic Option for the Treatment of Small-Cell Lung Cancer” (J Med Chem, 2025).
In brackets after ≈: the same amount, converted by molar mass.

Tests used:
NCI-H446 [1] = assay: Antitumor activity against human NCI-H446 cells xenografted in female NU-NU mouse model assessed as tumor growth inhibition at 12.5 mg/kg, po administered once daily for 15 days relative to control; assay type: functional; conditions: NCI-H446, 360 h, time 15 day, read-out: TGI
[2] = Cytotoxicity against human MCF-10A cells assessed as inhibition of cell growth incubated for 72 hrs by CCK8 assay; assay type: toxicity, cell-based
[3] = AUC (0 to 24 hrs) in Sprague-Dawley rat at 5 mg/kg, iv measured after 12 hrs by LC-MS/MS analysis; assay type: ADME, organism-based; conditions: in vivo
[4] = Oral bioavailability in Sprague-Dawley rat at 25 mg/kg measured after 12 hrs by LC-MS/MS analysis; assay type: ADME, organism-based; conditions: in vivo
[5] = Half-life in mouse at 25 mg/kg, po; assay type: ADME, organism-based; conditions: in vivo
[6] = Metabolic stability in human liver microsomes assessed as parent compound remaining measured after 60 mins; assay type: ADME, Microsome; conditions: read-out: Stability
[7] = AUC (0 to infinity) in mouse at 25 mg/kg, po; assay type: ADME, organism-based; conditions: in vivo
NCI-H446 [8] = assay: Antiproliferative activity against human NCI-H446 cells assessed as inhibition of cell growth incubated for 72 hrs by CCK8 assay; assay type: functional, cell-based; conditions: NCI-H446, 72 h
[9] = Toxicity in mouse assessed as pathological changes in heart at 12.5 to 25 mg/kg, po administered daily for 14 days by H and E staining based analysis; assay type: organism-based; conditions: in vivo, 336 h, dose 12.5-25 mg/kg, time 14 day
[10] = AUC (0 to 24 hrs) in Sprague-Dawley rat at 25 mg/kg, po measured after 12 hrs by LC-MS/MS analysis; assay type: ADME, organism-based; conditions: in vivo
[11] = Metabolic stability in human liver microsomes assessed as half-life; assay type: ADME, Microsome; conditions: liver microsomes
DMS-114 = assay: Antiproliferative activity against human DMS-114 cells assessed as inhibition of cell growth incubated for 72 hrs by CCK8 assay; assay type: functional, cell-based; conditions: DMS-114, 72 h
[12] = Cmax in mouse at 25 mg/kg, po; assay type: ADME, organism-based; conditions: in vivo
[13] = Cmax in Sprague-Dawley rat at 25 mg/kg, po measured after 12 hrs by LC-MS/MS analysis; assay type: ADME, organism-based; conditions: in vivo
[14] = Efflux ratio of apparent permeability across basolateral to apical over apical to basolateral side in human Caco-2 cells at 2 uM measured after 60 mins by HPLC analysis; assay type: ADME, cell-based
Mus musculus [15] = assay: Hematotoxicity in mouse assessed as effect on WBC count at 12.5 to 25 mg/kg, po administered daily for 14 days; assay type: toxicity, organism-based; conditions: in vivo, 336 h, dose 12.5-25 mg/kg, time 14 day
[16] = Kinetic solubility of compound in FeSSIF buffer incubated for 2 hrs by LC-MS/MS analysis; assay type: physicochemical; conditions: read-out: Kinetic_solubility
NCI-H446 [17] = assay: Antitumor activity against human NCI-H446 cells xenografted in female NU-NU mouse model assessed as tumor growth inhibition at 25 mg/kg, po administered once daily for 15 days relative to control; assay type: functional; conditions: NCI-H446, 360 h, time 15 day, read-out: TGI
[18] = Apparent permeability across apical to basolateral side in human Caco-2 cells at 2 uM measured after 60 mins by HPLC analysis; assay type: ADME, cell-based
[19] = biological target: Protein cereblon/Cyclin-dependent kinase 9 (Homo sapiens, UniProt P50750+Q96SW2); assay: PROTAC activity at CRBN/CDK9 in human NCI-H69 cells assessed as induction of CDK9 degradation incubated for 8 hrs by Western blot analysis; assay type: cell-based
Mus musculus [20] = assay: Toxicity in female NU/NU mouse model xenografted with human NCI-H446 cells assessed as effect on body weight at 12.5 to 25 mg/kg, po administered once daily for 15 days; assay type: organism-based; conditions: in vivo, 360 h, dose 12.5-25 mg/kg, time 15 day
[21] = AUC (0 to 24 hrs) in mouse at 25 mg/kg, po; assay type: ADME, organism-based; conditions: in vivo
[22] = AUC (0 to infinity) in Sprague-Dawley rat at 5 mg/kg, iv measured after 12 hrs by LC-MS/MS analysis; assay type: ADME, organism-based; conditions: in vivo
[23] = Toxicity in mouse assessed as pathological changes in liver at 12.5 to 25 mg/kg, po administered daily for 14 days by H and E staining based analysis; assay type: organism-based; conditions: in vivo, 336 h, dose 12.5-25 mg/kg, time 14 day
[24] = Toxicity in mouse assessed as pathological changes in spleen at 12.5 to 25 mg/kg, po administered daily for 14 days by H and E staining based analysis; assay type: organism-based; conditions: in vivo, 336 h, dose 12.5-25 mg/kg, time 14 day
[25] = Half-life in Sprague-Dawley rat at 5 mg/kg, iv measured after 12 hrs by LC-MS/MS analysis; assay type: ADME, organism-based; conditions: in vivo
[26] = Cmax in mouse at 5 mg/kg, iv; assay type: ADME, organism-based; conditions: in vivo
NCI-H524 = assay: Antiproliferative activity against human NCI-H524 cells assessed as inhibition of cell growth incubated for 72 hrs by CCK8 assay; assay type: functional, cell-based; conditions: NCI-H524, 72 h
[27] = AUC (0 to 24 hrs) in mouse at 5 mg/kg, iv; assay type: ADME, organism-based; conditions: in vivo
[28] = Cytotoxicity against HEK293T cells assessed as inhibition of cell growth incubated for 72 hrs by CCK8 assay; assay type: toxicity, cell-based, HEK-293T; conditions: human
[29] = AUC (0 to infinity) in Sprague-Dawley rat at 25 mg/kg, po measured after 12 hrs by LC-MS/MS analysis; assay type: ADME, organism-based; conditions: in vivo
[30] = Cytotoxicity against human BEAS-2B cells assessed as inhibition of cell growth incubated for 72 hrs by CCK8 assay; assay type: toxicity, cell-based
[31] = Toxicity in mouse assessed as pathological changes in kidney at 12.5 to 25 mg/kg, po administered daily for 14 days by H and E staining based analysis; assay type: organism-based; conditions: in vivo, 336 h, dose 12.5-25 mg/kg, time 14 day
NCI-H69 = assay: Antiproliferative activity against human NCI-H69 cells assessed as inhibition of cell growth incubated for 72 hrs by CCK8 assay; assay type: functional, cell-based; conditions: NCI-H69, 72 h
[32] = Cmax in Sprague-Dawley rat at 5 mg/kg, iv measured after 12 hrs by LC-MS/MS analysis; assay type: ADME, organism-based; conditions: in vivo
[33] = Metabolic stability in human liver microsomes assessed as intrinsic clearance; assay type: ADME, Microsome; conditions: liver microsomes, read-out: CLH
[34] = Metabolic stability in mouse liver microsomes assessed as intrinsic clearance; assay type: ADME, Microsome; conditions: liver microsomes, read-out: CLH
[35] = Half-life in Sprague-Dawley rat at 25 mg/kg, po measured after 12 hrs by LC-MS/MS analysis; assay type: ADME, organism-based; conditions: in vivo
[36] = Metabolic stability in mouse liver microsomes assessed as half-life; assay type: ADME, Microsome; conditions: liver microsomes
[37] = Half-life in mouse at 5 mg/kg, iv; assay type: ADME, organism-based; conditions: in vivo
Mus musculus [38] = assay: Toxicity in female NU/NU mouse model xenografted with human NCI-H446 cells expressing luciferase-GFP assessed as effect on body weight at 12.5 to 25 mg/kg, po administered for 19 days; assay type: organism-based; conditions: in vivo, 456 h, dose 12.5-25 mg/kg, time 19 day
[39] = AUC (0 to infinity) in mouse at 5 mg/kg, iv; assay type: ADME, organism-based; conditions: in vivo
[40] = Cytotoxicity against human L02 cells assessed as inhibition of cell growth incubated for 72 hrs by CCK8 assay; assay type: toxicity, cell-based
[41] = Oral bioavailability in mouse at 25 mg/kg; assay type: ADME, organism-based; conditions: in vivo
[42] = Metabolic stability in mouse liver microsomes assessed as parent compound remaining measured after 60 mins; assay type: ADME, Microsome; conditions: read-out: Stability
Mus musculus [43] = assay: Hematotoxicity in mouse assessed as effect on platelet count at 12.5 to 25 mg/kg, po administered daily for 14 days; assay type: toxicity, organism-based; conditions: in vivo, 336 h, dose 12.5-25 mg/kg, time 14 day
[44] = Toxicity in mouse assessed as pathological changes in lung at 12.5 to 25 mg/kg, po administered daily for 14 days by H and E staining based analysis; assay type: organism-based; conditions: in vivo, 336 h, dose 12.5-25 mg/kg, time 14 day
[45] = Apparent permeability across basolateral to apical side in human Caco-2 cells at 2 uM measured after 60 mins by HPLC analysis; assay type: ADME, cell-based
NCI-H146 = assay: Antiproliferative activity against human NCI-H146 cells assessed as inhibition of cell growth incubated for 72 hrs by CCK8 assay; assay type: functional, cell-based; conditions: NCI-H146, 72 h
[46] = biological target: Voltage-gated inwardly rectifying potassium channel KCNH2 (Homo sapiens, UniProt Q12809); assay: Inhibition of human ERG expressed in HEK293 cells by manual-patch clamp assay; assay type: toxicity, cell-based
Sequence of Voltage-gated inwardly rectifying potassium channel KCNH2 (Q12809 whole entry): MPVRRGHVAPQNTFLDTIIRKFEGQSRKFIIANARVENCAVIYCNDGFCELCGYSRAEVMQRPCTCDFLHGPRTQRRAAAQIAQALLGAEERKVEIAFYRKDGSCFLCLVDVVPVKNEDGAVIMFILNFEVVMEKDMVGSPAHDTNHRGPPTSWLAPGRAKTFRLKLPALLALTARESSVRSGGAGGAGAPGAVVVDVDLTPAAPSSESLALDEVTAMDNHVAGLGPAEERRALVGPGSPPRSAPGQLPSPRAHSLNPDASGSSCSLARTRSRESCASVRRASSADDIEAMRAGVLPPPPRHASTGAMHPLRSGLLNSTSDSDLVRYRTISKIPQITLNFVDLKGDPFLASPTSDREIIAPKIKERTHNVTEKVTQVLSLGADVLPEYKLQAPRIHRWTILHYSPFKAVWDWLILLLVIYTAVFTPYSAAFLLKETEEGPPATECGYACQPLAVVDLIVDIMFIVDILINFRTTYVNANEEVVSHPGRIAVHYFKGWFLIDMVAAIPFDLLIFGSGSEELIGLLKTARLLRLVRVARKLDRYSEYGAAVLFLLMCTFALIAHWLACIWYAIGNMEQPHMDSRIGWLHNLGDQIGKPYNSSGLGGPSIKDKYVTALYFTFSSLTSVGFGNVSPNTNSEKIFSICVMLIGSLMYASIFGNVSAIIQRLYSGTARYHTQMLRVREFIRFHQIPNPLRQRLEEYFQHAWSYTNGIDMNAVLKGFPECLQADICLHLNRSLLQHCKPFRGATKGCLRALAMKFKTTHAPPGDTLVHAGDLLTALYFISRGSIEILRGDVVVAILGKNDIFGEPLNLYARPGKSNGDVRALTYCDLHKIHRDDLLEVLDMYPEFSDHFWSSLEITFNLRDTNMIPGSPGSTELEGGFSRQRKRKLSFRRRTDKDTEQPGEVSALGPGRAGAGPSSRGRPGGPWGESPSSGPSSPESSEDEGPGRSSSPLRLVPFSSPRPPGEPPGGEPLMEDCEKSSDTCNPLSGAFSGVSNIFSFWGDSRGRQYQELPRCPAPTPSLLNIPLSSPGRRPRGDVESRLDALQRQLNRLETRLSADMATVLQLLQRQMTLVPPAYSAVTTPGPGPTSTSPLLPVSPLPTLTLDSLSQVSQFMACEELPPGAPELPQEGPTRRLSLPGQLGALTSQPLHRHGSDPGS

Sequence of Protein cereblon/Cyclin-dependent kinase 9 (P50750 whole entry): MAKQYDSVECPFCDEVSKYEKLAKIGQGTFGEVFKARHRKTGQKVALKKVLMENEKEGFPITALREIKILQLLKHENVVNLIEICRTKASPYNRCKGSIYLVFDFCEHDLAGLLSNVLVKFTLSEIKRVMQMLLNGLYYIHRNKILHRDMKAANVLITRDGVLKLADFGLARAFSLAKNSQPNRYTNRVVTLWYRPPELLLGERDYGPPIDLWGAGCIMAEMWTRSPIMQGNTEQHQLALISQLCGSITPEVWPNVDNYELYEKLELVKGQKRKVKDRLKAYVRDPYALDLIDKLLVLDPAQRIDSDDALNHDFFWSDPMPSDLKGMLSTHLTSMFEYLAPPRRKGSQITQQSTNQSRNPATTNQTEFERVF
Sequence of Protein cereblon/Cyclin-dependent kinase 9 (Q96SW2 whole entry): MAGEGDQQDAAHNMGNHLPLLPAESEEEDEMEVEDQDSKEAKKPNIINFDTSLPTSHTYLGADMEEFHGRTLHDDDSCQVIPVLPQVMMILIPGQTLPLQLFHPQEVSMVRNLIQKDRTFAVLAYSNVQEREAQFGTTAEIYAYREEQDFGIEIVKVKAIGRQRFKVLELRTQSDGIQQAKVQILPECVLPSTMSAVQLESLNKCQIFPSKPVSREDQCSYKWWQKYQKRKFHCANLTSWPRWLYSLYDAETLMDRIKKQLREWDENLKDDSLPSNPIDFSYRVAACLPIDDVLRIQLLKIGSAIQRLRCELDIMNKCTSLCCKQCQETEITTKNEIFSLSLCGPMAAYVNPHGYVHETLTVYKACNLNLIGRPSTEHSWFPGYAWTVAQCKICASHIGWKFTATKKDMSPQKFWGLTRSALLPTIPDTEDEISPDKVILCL

AUC(0-t) at 12 h [3]: 2180 ng·h/mL
bioavailability [4]: 6.5%
half-life [5]: 4.7 h
remaining at 1 h [6]: 76.2%
AUC(0-inf) [7]: 971 ng·h/mL
IC50 (NCI-H446 [8]): 1.01 nM
AUC(0-t) at 12 h [10]: 714 ng·h/mL
half-life [11]: 1.77 h
Cmax [12]: 277 ng/mL
Cmax [13]: 179 ng/mL
efflux ratio at 1 h, 2 µM [14]: 5.2
solubility kinetic at 2 h [16]: 234 µM (≈ 189 µg/mL)
Papp A→B at 1 h, 2 µM [18]: 1.81 ×10⁻⁶ cm/s
DC50 [19]: 1.09 nM
AUC(0-t) [21]: 951 ng·h/mL
AUC(0-inf) [22]: 2330 ng·h/mL
half-life [25]: 2.8 h
Cmax [26]: 2600 ng/mL
IC50 (NCI-H524): 0.53 nM
AUC(0-t) [27]: 2660 ng·h/mL
AUC(0-inf) [29]: 893 ng·h/mL
IC50 (NCI-H69): 1.03 nM
Cmax [32]: 2000 ng/mL
microsomal CLint [33]: 11 µL/min/mg
microsomal CLint [34]: 9.4 µL/min/mg
half-life [35]: 5.4 h
half-life [36]: 2.42 h
half-life [37]: 8.2 h
AUC(0-inf) [39]: 2860 ng·h/mL
bioavailability [41]: 6.8%
remaining at 1 h [42]: 82.8%
Papp B→A at 1 h, 2 µM [45]: 9.47 ×10⁻⁶ cm/s
IC50 (NCI-H146): 0.53 nM
SMILES: O=C1CCC(Nc2cccc(N3CCN(CC4CCN(CC(=O)N5CCC(NC(=O)c6n[nH]cc6NC(=O)c6c(Cl)cccc6Cl)CC5)CC4)CC3)c2)C(=O)N1 (stereo not given)
inhibition in vivo at 12.5 mg/kg (NCI-H446 [1]): 79.2%
IC50 at 72 h [2]: 126 nM
Activity [9]: Minimal_effect
IC50 (DMS-114): 0.53 nM
Activity (Mus musculus [15]): Non-toxic
inhibition in vivo at 25 mg/kg (NCI-H446 [17]): 84.8%
Activity (Mus musculus [20]): Non-toxic
Activity [23]: Minimal_effect
Activity [24]: Minimal_effect
IC50 at 72 h [28]: 95 nM
IC50 at 72 h [30]: 413 nM
Activity [31]: Minimal_effect
Activity (Mus musculus [38]): Non-toxic
IC50 at 72 h [40]: 70 nM
Activity (Mus musculus [43]): Non-toxic
Activity [44]: Minimal_effect
IC50 [46]: > 30000 nM
